Test results from US9278958B2, “Anti-cancer compounds” (KATHOLIEKE UNIVERSITEIT LEUVEN, priority 2012, dated 2016).
Like-named read-outs stand apart in the source and are kept apart here.

Columns and labels:
[1] = test system: HeLa cervix carcinoma cells; assay: Cytostatic assay, HeLa; format: cell-based, human
Experimental: (§1) To each well of a 96-well microtiter plate were added 5-7.5×10^4 cells and a given amount of the test compound. The cells were allowed to proliferate for 48 h to 96 h (depending on the nature of the cell line) at 37° C. in a humidified CO2-controlled atmosphere. At the end of the incubation period, the cells were counted in a Coulter Counter (Coulter Electronics Ltd, Harpenden Herts, United Kingdom).

CEM cells = assay: Cytostatic assay, CEM; format: cell-based; settings: for Ratio (tumor cell selectivity): ratio IC50 HeLa / IC50 CEM, Table 7
Experimental: as §1

[2] = Homo sapiens, HeLa cells, Table 7, 5-arylthiomethyl-substituted 2-amino-3-carboxymethylthiophenes, read-out: IC50 (μM) HeLa
[3] = Homo sapiens, CCRF-CEM, CEM cells, Table 7, 5-arylthiomethyl-substituted 2-amino-3-carboxymethylthiophenes, read-out: IC50 (μM) CEM

Row | IC50 [1, 2] [µM] | IC50 (CEM cells; [3]) [µM] | IC50 ([1]; Homo sapiens, Table 1b, read-out: IC50 (μM) (HeLa)) [µM] | IC50 (CEM cells; Homo sapiens, CCRF-CEM, Table 1b, read-out: IC50 (μM) (CEM)) [µM] | IC50 ([1]; HeLa cells, Table 7, 5-arylthiomethyl-substituted 2-amino-3-carboxymethylthiophenes, read-out: IC50 (μM) HeLa) [µM] | IC50 ([1]; Table 1b, read-out: IC50 (μM) (HeLa)) [µM] | IC50 (CEM cells; CEM cells, Table 7, 5-arylthiomethyl-substituted 2-amino-3-carboxymethylthiophenes, read-out: IC50 (μM) CEM) [µM] | IC50 (CEM cells; Table 1b, read-out: IC50 (μM) (CEM)) [µM] | Structure (SMILES) | Ratio (tumor cell selectivity) (CEM cells)
1 | 46 | 39 |  |  |  |  |  |  | COC(=O)c1cc(CSc2ccccc2N)sc1N [TJ122, Methyl 2-amino-5-((2-aminophenylthio)methyl)thiophene-3-carboxylate] | 1
2 | 81 | 2.1 |  |  |  |  |  |  | COC(=O)c1cc(CSC2CCCCC2)sc1N [Compound D8, Methyl 2-amino-5-(cyclohexylthiomethyl)thiophene-3-carboxylate] | 39
3 | 74 | 0.9 | 74 ± 6 | 0.9 ± 0.04 |  |  |  |  | COC(=O)c1cc(CSc2ccc3ccccc3c2)sc1N [TJ113, Methyl 2-amino-5-((naphthalen-2-ylthio)methyl)thiophene-3-carboxylate] | 82
4 | 16 | 12 |  |  |  |  |  |  | COC(=O)c1cc(CSc2ccc([N+](=O)[O-])cc2)sc1N [TJ126, Methyl 2-amino-5-((4-nitrophenylthio)methyl)thiophene-3-carboxylate] | 1
5 |  |  |  |  | 61 | 61 ± 38 | 3.5 | 3.5 ± 1.1 | COC(=O)c1cc(CSCc2ccccc2)sc1N [TJ57, Methyl 2-amino-5-(2-(phenyl)methylsulfanylmethyl)thiophene-3-carboxylate] | 17
6 | 80 | 1.8 |  |  |  |  |  |  | COC(=O)c1cc(CSC2CCCC2)sc1N [TJ179, Methyl 2-amino-5-(cyclopentylthiomethyl)thiophene-3-carboxylate] | 44
